Columns and labels:
B2 bradykinin receptor = target: T1, B2 bradykinin receptor (Homo sapiens, UniProt P30411); assay type: cell membranes, Membrane; settings: chem-1; note: in other assays of this panel Not Active means under 50% inhibition at 10 µM
T1 sequence (P30411 whole entry): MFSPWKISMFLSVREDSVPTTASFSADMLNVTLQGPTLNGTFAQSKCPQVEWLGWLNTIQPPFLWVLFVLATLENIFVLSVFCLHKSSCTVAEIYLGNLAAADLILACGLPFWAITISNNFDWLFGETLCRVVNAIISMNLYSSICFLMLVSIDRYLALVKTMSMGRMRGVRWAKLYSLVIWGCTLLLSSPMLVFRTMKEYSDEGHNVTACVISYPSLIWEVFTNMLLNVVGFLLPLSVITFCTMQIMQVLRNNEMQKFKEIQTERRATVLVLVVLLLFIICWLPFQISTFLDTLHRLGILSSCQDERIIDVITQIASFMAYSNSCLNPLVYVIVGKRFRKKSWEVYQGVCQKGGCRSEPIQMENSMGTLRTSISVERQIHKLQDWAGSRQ

Thromboxane-A synthase = target: T2, Thromboxane-A synthase (Homo sapiens, UniProt P24557); test: biochemical; assay type: tissue-based, Platelet;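 note: enzyme inhibition assay with PGH2 supplied as substrate; in other assays of this panel Not Active means under 50% inhibition at 10 µM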
T2 sequence (P24557 whole entry): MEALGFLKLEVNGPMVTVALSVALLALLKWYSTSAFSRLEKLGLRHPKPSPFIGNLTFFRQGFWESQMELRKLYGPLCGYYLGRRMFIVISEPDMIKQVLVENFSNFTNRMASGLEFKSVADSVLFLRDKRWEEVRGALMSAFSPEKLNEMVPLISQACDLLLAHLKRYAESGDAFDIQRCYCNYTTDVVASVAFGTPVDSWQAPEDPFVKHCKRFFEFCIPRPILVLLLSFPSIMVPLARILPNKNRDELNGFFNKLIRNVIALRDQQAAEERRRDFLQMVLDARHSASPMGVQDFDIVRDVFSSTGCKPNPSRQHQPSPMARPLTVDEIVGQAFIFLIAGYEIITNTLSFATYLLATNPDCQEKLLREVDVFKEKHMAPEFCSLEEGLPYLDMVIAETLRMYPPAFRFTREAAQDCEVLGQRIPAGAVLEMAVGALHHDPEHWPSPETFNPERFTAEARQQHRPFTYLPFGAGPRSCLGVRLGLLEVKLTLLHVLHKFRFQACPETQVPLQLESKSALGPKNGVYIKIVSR

[1] = target: Sodium-dependent dopamine transporter (Homo sapiens, UniProt Q01959); test: DRUGMATRIX: Dopamine Transporter radioligand binding (ligand: [125I] RTI-55); assay type: cell membranes, CHO-K1, Membrane; settings: Not Active = under 50% inhibition at 10 µM
Sequence of Sodium-dependent dopamine transporter (Q01959 whole entry): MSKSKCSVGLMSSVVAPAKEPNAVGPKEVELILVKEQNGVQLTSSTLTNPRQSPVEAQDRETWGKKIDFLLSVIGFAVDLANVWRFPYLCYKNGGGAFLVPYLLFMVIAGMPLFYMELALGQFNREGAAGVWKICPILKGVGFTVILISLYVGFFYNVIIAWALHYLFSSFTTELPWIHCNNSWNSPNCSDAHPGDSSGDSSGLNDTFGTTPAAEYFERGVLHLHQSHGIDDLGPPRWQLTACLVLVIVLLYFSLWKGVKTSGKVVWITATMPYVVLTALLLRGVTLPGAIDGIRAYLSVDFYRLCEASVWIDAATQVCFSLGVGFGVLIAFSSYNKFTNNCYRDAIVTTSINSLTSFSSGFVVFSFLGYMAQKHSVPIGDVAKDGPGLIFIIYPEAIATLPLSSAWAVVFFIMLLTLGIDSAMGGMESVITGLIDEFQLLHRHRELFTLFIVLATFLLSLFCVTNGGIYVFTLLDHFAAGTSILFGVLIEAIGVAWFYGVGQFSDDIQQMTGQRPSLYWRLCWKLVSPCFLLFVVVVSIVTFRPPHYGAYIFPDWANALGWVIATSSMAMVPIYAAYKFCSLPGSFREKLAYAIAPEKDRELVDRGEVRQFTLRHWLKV

Melanocortin receptor 3 = Melanocortin receptor 3 (Homo sapiens, UniProt P41968); assay type: cell membranes, HEK293, Membrane; settings: hek293; note: in other assays of this panel Not Active means under 50% inhibition at 10 µM
Sequence of Melanocortin receptor 3 (P41968 whole entry): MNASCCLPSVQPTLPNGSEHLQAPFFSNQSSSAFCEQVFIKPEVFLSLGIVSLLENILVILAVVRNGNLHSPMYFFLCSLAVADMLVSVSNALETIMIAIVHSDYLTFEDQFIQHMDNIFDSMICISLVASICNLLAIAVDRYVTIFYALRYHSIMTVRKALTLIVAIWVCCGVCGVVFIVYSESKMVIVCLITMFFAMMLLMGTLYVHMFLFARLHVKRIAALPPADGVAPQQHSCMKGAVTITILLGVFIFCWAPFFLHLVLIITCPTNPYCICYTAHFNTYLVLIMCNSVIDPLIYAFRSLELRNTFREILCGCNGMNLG

[2] = DRUGMATRIX: Phorbol Ester radioligand binding (ligand: [3H] PDBu); assay type: cell membranes, Mus musculus, ICR, Brain, Membrane; settings: Not Active = under 50% inhibition at 10 µM
Cathepsin G = target: T3, Cathepsin G (Homo sapiens, UniProt P08311); test: biochemical; assay type: tissue-based, Neutrophil;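 note: inhibition of Cathepsin G enzyme activity, tested on an AMC-conjugated peptide substrate; in other assays of this panel Not Active means under 50% inhibition at 10 µM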
T3 sequence (P08311 whole entry): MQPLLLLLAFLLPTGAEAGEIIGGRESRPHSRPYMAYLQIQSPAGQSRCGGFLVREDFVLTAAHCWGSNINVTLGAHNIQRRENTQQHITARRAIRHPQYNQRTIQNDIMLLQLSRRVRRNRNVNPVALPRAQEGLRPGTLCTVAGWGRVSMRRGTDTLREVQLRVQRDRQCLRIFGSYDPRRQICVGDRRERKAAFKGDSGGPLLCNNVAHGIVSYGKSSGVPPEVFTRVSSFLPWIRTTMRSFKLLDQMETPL

[3] = target: T4, Receptor-type tyrosine-protein phosphatase C (Homo sapiens, UniProt P08575); parameters: species or system Escherichia coli
T4 sequence (P08575 whole entry): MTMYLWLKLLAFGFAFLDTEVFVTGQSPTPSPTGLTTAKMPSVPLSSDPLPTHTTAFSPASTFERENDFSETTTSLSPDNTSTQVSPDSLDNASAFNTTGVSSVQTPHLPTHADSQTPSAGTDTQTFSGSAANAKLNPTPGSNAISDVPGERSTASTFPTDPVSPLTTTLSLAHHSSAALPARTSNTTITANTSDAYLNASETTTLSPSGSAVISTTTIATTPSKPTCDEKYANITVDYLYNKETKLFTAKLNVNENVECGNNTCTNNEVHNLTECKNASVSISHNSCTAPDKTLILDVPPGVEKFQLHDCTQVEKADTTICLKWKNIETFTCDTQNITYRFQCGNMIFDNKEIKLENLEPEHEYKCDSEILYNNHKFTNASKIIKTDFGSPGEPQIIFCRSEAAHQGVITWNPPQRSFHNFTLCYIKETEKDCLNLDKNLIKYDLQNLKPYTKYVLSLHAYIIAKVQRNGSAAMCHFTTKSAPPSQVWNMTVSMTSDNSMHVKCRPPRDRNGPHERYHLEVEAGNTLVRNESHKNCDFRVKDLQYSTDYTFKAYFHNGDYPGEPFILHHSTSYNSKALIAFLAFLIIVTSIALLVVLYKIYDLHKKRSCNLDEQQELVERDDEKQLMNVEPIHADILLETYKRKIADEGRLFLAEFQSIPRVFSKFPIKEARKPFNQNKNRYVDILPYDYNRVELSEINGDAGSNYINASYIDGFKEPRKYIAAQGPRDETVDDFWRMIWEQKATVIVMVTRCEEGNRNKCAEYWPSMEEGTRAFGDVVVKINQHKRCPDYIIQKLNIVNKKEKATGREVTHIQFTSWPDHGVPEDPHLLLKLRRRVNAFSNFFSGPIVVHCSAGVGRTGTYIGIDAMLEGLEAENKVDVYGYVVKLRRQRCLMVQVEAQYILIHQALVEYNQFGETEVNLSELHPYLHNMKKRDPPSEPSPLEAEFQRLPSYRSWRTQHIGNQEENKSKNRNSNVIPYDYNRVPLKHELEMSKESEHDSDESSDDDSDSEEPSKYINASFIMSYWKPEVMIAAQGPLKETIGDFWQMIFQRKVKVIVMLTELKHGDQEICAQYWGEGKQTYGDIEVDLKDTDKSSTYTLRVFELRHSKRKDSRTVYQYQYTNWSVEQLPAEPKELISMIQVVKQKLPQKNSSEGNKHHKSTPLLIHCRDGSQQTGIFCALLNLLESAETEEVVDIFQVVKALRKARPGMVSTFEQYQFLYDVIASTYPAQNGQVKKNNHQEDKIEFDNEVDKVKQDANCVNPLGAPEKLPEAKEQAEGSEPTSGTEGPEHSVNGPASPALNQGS

SMILES | IC50 (B2 bradykinin receptor) | IC50 (Thromboxane-A synthase; platelet) | IC50 ([1]; cho-k1) | IC50 (Melanocortin receptor 3) | IC50 [2] | Ki [2] | IC50 (Cathepsin G; neutrophil) | IC50 [3] | IC50 (Cathepsin G; read-out: IC50) [µM] | IC50 ([1]; read-out: IC50) [µM] | Ki ([1]; read-out: Ki) [µM] | IC50 (Thromboxane-A synthase; read-out: IC50) [µM]
CCOc1cc(N)c(Cl)cc1C(=O)NCC1CN(Cc2ccc(F)cc2)CCO1 (configuration not stated) [MOSAPRIDE] | Not Active | Not Active | Not Active | Not Active | Not Active | Not Active | Not Active | Not Active |  |  |  | 
O=C(c1ccccc1)c1ccc2n1CCC2C(=O)O (configuration not stated) [KETOROLAC] | Not Active | Not Active | Not Active | Not Active | Not Active | Not Active | Not Active | Not Active |  |  |  | 
Nc1nc(N)c2nc(-c3ccccc3)c(N)nc2n1 | Not Active | Not Active | Not Active | Not Active | Not Active | Not Active |  | Not Active | 7.41 |  |  | 
Oc1ccc(/C=C/c2cc(O)cc(O)c2)cc1 [RESVERATROL] | Not Active | Not Active | Not Active | Not Active | Not Active | Not Active | Not Active | Not Active |  |  |  | 
Cc1ccnc(NS(=O)(=O)c2ccc(N)cc2)n1 [SULFAMERAZINE] | Not Active | Not Active | Not Active | Not Active | Not Active | Not Active | Not Active | Not Active |  |  |  | 
CCN1CCCC1CNC(=O)c1cc(S(N)(=O)=O)ccc1OC (configuration not stated) [SULPIRIDE] | Not Active | Not Active | Not Active | Not Active | Not Active | Not Active | Not Active | Not Active |  |  |  | 
O=C1CC[C@@]2(O)[C@H]3Cc4ccc(O)c5c4[C@@]2(CCN3CC2CC2)[C@H]1O5 [NALTREXONE] | Not Active | Not Active | Not Active | Not Active | Not Active | Not Active | Not Active | Not Active |  |  |  | 
CCN(CC)C(=S)SSC(=S)N(CC)CC | Not Active | Not Active |  | Not Active | Not Active | Not Active | Not Active | Not Active |  | 4.64 | 3.68 | 
O=C(OC[C@H]1O[C@@H](OC(=O)c2cc(O)c(O)c(OC(=O)c3cc(O)c(O)c(O)c3)c2)[C@H](OC(=O)c2cc(O)c(O)c(OC(=O)c3cc(O)c(O)c(O)c3)c2)[C@@H](OC(=O)c2cc(O)c(O)c(OC(=O)c3cc(O)c(O)c(O)c3)c2)[C@@H]1OC(=O)c1cc(O)c(O)c(OC(=O)c2cc(O)c(O)c(O)c2)c1)c1cc(O)c(O)c(OC(=O)c2cc(O)c(O)c(O)c2)c1 [TANNIC ACID] | Not Active |  | Not Active | Not Active | Not Active | Not Active | Not Active | Not Active |  |  |  | 0.325
C=CCc1ccc2c(c1)OCO2 [SAFROLE] | Not Active | Not Active | Not Active | Not Active | Not Active | Not Active | Not Active | Not Active |  |  |  | 
C#C[C@]1(O)CC[C@H]2[C@@H]3[C@H](C)CC4=C(CCC(=O)C4)[C@H]3CC[C@@]21C [TIBOLONE] | Not Active | Not Active | Not Active | Not Active | Not Active | Not Active | Not Active | Not Active |  |  |  | 
CC[C@@]1(O)C(=O)OCc2c1cc1n(c2=O)Cc2cc3c(CN(C)C)c(O)ccc3nc2-1 [TOPOTECAN] | Not Active | Not Active | Not Active | Not Active | Not Active | Not Active | Not Active | Not Active |  |  |  | 
CC1(C)[C@H](C(=O)O)N2C(=O)C[C@H]2S1(=O)=O [SULBACTAM] | Not Active | Not Active | Not Active | Not Active | Not Active | Not Active | Not Active | Not Active |  |  |  | 
CCN(CC)N=O [N-NITROSODIETHYLAMINE] | Not Active | Not Active | Not Active | Not Active | Not Active | Not Active | Not Active | Not Active |  |  |  | 
C[C@]12CCC(=O)C[C@@H]1CC[C@@H]1[C@@H]2CC[C@]2(C)[C@@H](O)CC[C@@H]12 [STANOLONE] | Not Active | Not Active | Not Active | Not Active | Not Active | Not Active | Not Active | Not Active |  |  |  | 
Cc1cccc(C)c1NC(=O)C(C)N (configuration not stated) [TOCAINIDE] | Not Active | Not Active | Not Active | Not Active | Not Active | Not Active | Not Active | Not Active |  |  |  | 
CN1C[C@H](CNC(=O)OCc2ccccc2)C[C@@H]2c3cccc4c3c(cn4C)C[C@H]21 [METERGOLINE] | Not Active | Not Active |  | Not Active | Not Active | Not Active | Not Active | Not Active |  |  |  | 
Cc1cc2c(s1)Nc1ccccc1N=C2N1CCN(C)CC1 [OLANZAPINE] | Not Active | Not Active | Not Active | Not Active |  |  | Not Active | Not Active |  |  |  | 
CNCCCC12CCC(c3ccccc31)c1ccccc12 [MAPROTILINE] | Not Active | Not Active |  | Not Active |  |  | Not Active | Not Active |  |  |  | 
CN(C)CCC=C1c2ccccc2COc2ccccc21 [DOXEPIN] | Not Active | Not Active |  | Not Active |  |  | Not Active | Not Active |  |  |  | 

Source: ChEMBL document CHEMBL1909046, “DrugMatrix in vitro pharmacology data”
